Laboratory results reported in the NIST ThermoML archive (doi:10.1021/je800017j).
± gives the expanded uncertainty stated by the source.

Assay: xn = mol fraction of the nth substance listed
Conditions: Liquid, Vibrating tube method

C=CC [propene] + CC(C)O
Conditions	mass density [kg/m3]
300.11 K, 966.7 kPa, x1 = 0.5201	644.49 ± 0.68
300.11 K, 1373.3 kPa, x1 = 0.5201	645.21 ± 0.68
300.11 K, 1835.6 kPa, x1 = 0.5201	645.98 ± 0.68
300.11 K, 2340.9 kPa, x1 = 0.5201	646.83 ± 0.68
300.11 K, 2812.4 kPa, x1 = 0.5201	647.62 ± 0.69
300.11 K, 3330.1 kPa, x1 = 0.5201	648.49 ± 0.69
300.11 K, 3817.5 kPa, x1 = 0.5201	649.27 ± 0.69
300.11 K, 4386.1 kPa, x1 = 0.5201	650.18 ± 0.69
300.11 K, 4873.7 kPa, x1 = 0.5201	650.95 ± 0.69
300.11 K, 5375.2 kPa, x1 = 0.5201	651.72 ± 0.7
300.11 K, 5888.8 kPa, x1 = 0.5201	652.52 ± 0.7
300.11 K, 6442 kPa, x1 = 0.5201	653.35 ± 0.7
300.11 K, 6942.8 kPa, x1 = 0.5201	654.09 ± 0.71
300.11 K, 7498.2 kPa, x1 = 0.5201	654.9 ± 0.71
300.11 K, 8104.7 kPa, x1 = 0.5201	655.77 ± 0.71
300.11 K, 8671.8 kPa, x1 = 0.5201	656.58 ± 0.71
300.11 K, 9226.7 kPa, x1 = 0.5201	657.35 ± 0.72
300.11 K, 9787 kPa, x1 = 0.5201	658.16 ± 0.72
300.12 K, 1068.5 kPa, x1 = 0.6478	608.06 ± 0.65
300.12 K, 1486.5 kPa, x1 = 0.6478	608.93 ± 0.65
300.12 K, 1740.6 kPa, x1 = 0.6478	609.48 ± 0.65
300.12 K, 2123.8 kPa, x1 = 0.6478	610.19 ± 0.65
300.12 K, 2620 kPa, x1 = 0.6478	611.17 ± 0.66
300.12 K, 2986.8 kPa, x1 = 0.6478	611.92 ± 0.66
300.12 K, 3495.3 kPa, x1 = 0.6478	612.85 ± 0.66
300.12 K, 3829 kPa, x1 = 0.6478	613.59 ± 0.66
300.12 K, 4193.5 kPa, x1 = 0.6478	614.26 ± 0.66
300.12 K, 4542.8 kPa, x1 = 0.6478	614.93 ± 0.67
300.12 K, 4905.4 kPa, x1 = 0.6478	615.61 ± 0.67
300.12 K, 5263.7 kPa, x1 = 0.6478	616.27 ± 0.67
300.12 K, 5634.1 kPa, x1 = 0.6478	616.94 ± 0.67
300.12 K, 6011.3 kPa, x1 = 0.6478	617.61 ± 0.68
300.12 K, 6395.3 kPa, x1 = 0.6478	618.28 ± 0.68
300.12 K, 6788.6 kPa, x1 = 0.6478	618.96 ± 0.68
300.12 K, 7165.4 kPa, x1 = 0.6478	619.61 ± 0.68
300.12 K, 7558.1 kPa, x1 = 0.6478	620.28 ± 0.68
300.12 K, 7960.1 kPa, x1 = 0.6478	620.96 ± 0.69
300.12 K, 8377.2 kPa, x1 = 0.6478	621.66 ± 0.69
300.12 K, 8785.5 kPa, x1 = 0.6478	622.34 ± 0.69
300.12 K, 9234.2 kPa, x1 = 0.6478	623.05 ± 0.7
300.12 K, 9682.1 kPa, x1 = 0.6478	623.79 ± 0.7
300.14 K, 529.4 kPa, x1 = 0.2011	731.63 ± 0.75
300.14 K, 1051.3 kPa, x1 = 0.2011	732.17 ± 0.75
300.14 K, 1483.6 kPa, x1 = 0.2011	732.72 ± 0.76
300.14 K, 1954.4 kPa, x1 = 0.2011	733.24 ± 0.76
300.14 K, 2384 kPa, x1 = 0.2011	733.72 ± 0.76
300.14 K, 2798.6 kPa, x1 = 0.2011	734.18 ± 0.76
300.14 K, 3273.1 kPa, x1 = 0.2011	734.68 ± 0.76
300.14 K, 3740.2 kPa, x1 = 0.2011	735.18 ± 0.76
300.14 K, 4186.3 kPa, x1 = 0.2011	735.68 ± 0.76
300.14 K, 4728.6 kPa, x1 = 0.2011	736.23 ± 0.76
300.14 K, 5235.6 kPa, x1 = 0.2011	736.78 ± 0.77
300.14 K, 5767.3 kPa, x1 = 0.2011	737.3 ± 0.77
300.14 K, 6274.7 kPa, x1 = 0.2011	737.83 ± 0.77
300.14 K, 6832.5 kPa, x1 = 0.2011	738.41 ± 0.77
300.14 K, 7291.5 kPa, x1 = 0.2011	738.89 ± 0.77
300.14 K, 7811.8 kPa, x1 = 0.2011	739.42 ± 0.77
300.14 K, 8296.6 kPa, x1 = 0.2011	739.9 ± 0.77
300.14 K, 8810.3 kPa, x1 = 0.2011	740.41 ± 0.78
300.14 K, 9337.7 kPa, x1 = 0.2011	740.91 ± 0.78
300.14 K, 9886.4 kPa, x1 = 0.2011	741.45 ± 0.78
325.05 K, 1613.1 kPa, x1 = 0.5201	613.41 ± 0.65
325.05 K, 1977.7 kPa, x1 = 0.5201	614.26 ± 0.66
325.05 K, 2359 kPa, x1 = 0.5201	615.15 ± 0.66
325.05 K, 2717.2 kPa, x1 = 0.5201	615.98 ± 0.66
325.05 K, 3167.8 kPa, x1 = 0.5201	616.93 ± 0.66
325.05 K, 3506.1 kPa, x1 = 0.5201	617.74 ± 0.67
325.05 K, 3888.8 kPa, x1 = 0.5201	618.59 ± 0.67
325.05 K, 4321.6 kPa, x1 = 0.5201	619.52 ± 0.67
325.05 K, 4676.7 kPa, x1 = 0.5201	620.29 ± 0.67
325.05 K, 5061.4 kPa, x1 = 0.5201	621.12 ± 0.67
325.05 K, 5471.8 kPa, x1 = 0.5201	621.94 ± 0.68
325.05 K, 5880.1 kPa, x1 = 0.5201	622.78 ± 0.68
325.05 K, 6293.6 kPa, x1 = 0.5201	623.65 ± 0.68
325.05 K, 6704.3 kPa, x1 = 0.5201	624.42 ± 0.68
325.05 K, 7171.7 kPa, x1 = 0.5201	625.34 ± 0.69
325.05 K, 7597.4 kPa, x1 = 0.5201	626.18 ± 0.69
325.05 K, 8037.5 kPa, x1 = 0.5201	627.02 ± 0.69
325.05 K, 8556.5 kPa, x1 = 0.5201	628.02 ± 0.7
325.05 K, 9078.1 kPa, x1 = 0.5201	628.97 ± 0.7
325.05 K, 9631.3 kPa, x1 = 0.5201	629.98 ± 0.7
325.09 K, 810.9 kPa, x1 = 0.2011	703.07 ± 0.73
325.09 K, 1218.9 kPa, x1 = 0.2011	703.59 ± 0.73
325.09 K, 1608.7 kPa, x1 = 0.2011	704.14 ± 0.73
325.09 K, 2001.8 kPa, x1 = 0.2011	704.7 ± 0.73
325.09 K, 2383.7 kPa, x1 = 0.2011	705.3 ± 0.73
325.09 K, 2827.6 kPa, x1 = 0.2011	705.86 ± 0.73
325.09 K, 3159.2 kPa, x1 = 0.2011	706.38 ± 0.74
325.09 K, 3707.9 kPa, x1 = 0.2011	707.07 ± 0.74
325.09 K, 4123.6 kPa, x1 = 0.2011	707.68 ± 0.74
325.09 K, 4528.5 kPa, x1 = 0.2011	708.19 ± 0.74
325.09 K, 4925.3 kPa, x1 = 0.2011	708.73 ± 0.74

Conditions	mass density [kg/m3]
300.11 K, x1 = 0.5201	644.42 ± 0.67
300.12 K, x1 = 0.6478	607.97 ± 0.64
300.14 K, x1 = 0.2011	731.63 ± 0.75
325.05 K, x1 = 0.5201	613.29 ± 0.65
